One compound from US12612427B2, “Aryl glucoside derivative, preparation method therefor and application thereof” (Shanghai Zheye Biotechnology Co. Ltd., priority 2020, dated 2026) can be followed below.

For the test, the target named is T1, human SGLT1 (Homo sapiens, UniProt P13866).
T1 construct: expressed in transfected cells
T1 sequence (P13866 1-664): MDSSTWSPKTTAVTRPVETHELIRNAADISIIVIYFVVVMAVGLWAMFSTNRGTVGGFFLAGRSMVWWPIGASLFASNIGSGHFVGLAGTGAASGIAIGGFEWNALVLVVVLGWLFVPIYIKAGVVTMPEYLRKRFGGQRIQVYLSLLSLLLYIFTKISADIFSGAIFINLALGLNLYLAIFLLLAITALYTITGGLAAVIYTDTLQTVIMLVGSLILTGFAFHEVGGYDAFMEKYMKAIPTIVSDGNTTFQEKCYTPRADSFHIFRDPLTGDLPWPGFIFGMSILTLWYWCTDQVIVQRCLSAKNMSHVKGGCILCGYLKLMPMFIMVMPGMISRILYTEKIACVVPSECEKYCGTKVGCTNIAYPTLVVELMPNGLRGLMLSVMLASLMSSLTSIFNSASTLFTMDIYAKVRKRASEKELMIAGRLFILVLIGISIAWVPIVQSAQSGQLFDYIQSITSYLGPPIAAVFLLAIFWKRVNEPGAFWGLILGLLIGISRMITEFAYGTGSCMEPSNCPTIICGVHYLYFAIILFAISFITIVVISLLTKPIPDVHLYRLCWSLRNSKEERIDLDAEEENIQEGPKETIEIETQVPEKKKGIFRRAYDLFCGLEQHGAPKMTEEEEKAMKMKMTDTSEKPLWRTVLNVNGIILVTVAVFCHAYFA
Kind of test: hSGLT1 inhibitor activity experiment 2: 2-NBDG uptake by HEK293 cells stably expressing human SGLT1. The class given is cell-based. As for the experimental part:
Inhibitory activity testing was performed with reference to a similar method described in document [Acta Pharmaceutica Sinica 2017, 52 (6): 897-903; Nature Protocols (2007), 2(3), 753-762; Journal of Biochemical and Biophysical Methods (2005), 64(3), 207-215; Diabetes Technology & Therapeutics (2011), 13(7), 743-775].
In this experiment, the in vitro activity assay was evaluated using the uptake of 2-NBDG (2-Deoxy-2-[(7-nitro-2,1,3-benzoxadiazol-4-yl)amino]-D-glucose, CAS NO: 186689-07-6) by human embryonic kidney epithelial cells (HEK293, stably expressing human SGLT1), and the SGLT1 inhibitory activity of the target compound was determined by measuring its half-maximal inhibitory concentration (IC50).
HEK293 cells that can stably express human SGLT1 gene were inoculated into a 96-well clear-bottom black plate containing DMEM medium. The cells were incubated at 37° C., 5% CO2 in a cell incubator. The medium in the 96-well plate was aspirated, and the plate was treated with low-glucose serum-free DMEM medium, and washed once with non-specific uptake buffer and once with Na^+-dependent uptake buffer. Uptake buffer containing test compound was added to each well of cells, followed by uptake buffer containing 2-NBDG for glucose uptake, and the cell plate was incubated at 37° C., 5% CO2. The compounds were gradiently diluted. The uptake reaction was stopped by removing the culture medium, and after washing the cells with ice-cold uptake buffer, the washing solution was removed. The cells were lysed by adding NaOH, and the content of 2-NBDG in the cells was detected by a fluorescence microplate reader. The protein concentration of the lysate was measured by BCA method, the uptake of 2-NBDG was quantified by fluorescence intensity/protein content, and the obtained data were analyzed using GraphPad Prism to determine the median inhibitory concentration (IC50) of the compound to be tested.

Structures are written as SMILES.

Take `C#CCN(C)C(=O)CN(C)CCNC(=O)C(C)(C)NC(=O)CCCc1ccc(Cc2cc([C@@H]3O[C@H](SC)[C@@H](O)[C@H](O)[C@H]3O)ccc2C)cc1` [Example 10]: the “activity of inhibiting SGLT1 (in words)” value was “significant activity of inhibiting SGLT1”. In addition, where the note is “2-NBDG uptake, HEK293 stably expressing human SGLT1, read-out: SGLT1 Inhibitory Activity”, the IC50 was found to be 0.37 nM.
